# Measurements reported in US20160074466A1, “ANGIOTENSINS FOR TREATMENT OF FIBROSIS” (UNIVERSITY OF SOUTHERN CALIFORNIA, priority 2011, published 2016).
# Experiments:
# Collagen Type 1 mRNA = assay: Quantitative RT-PCR of liver, Collagen Type 1 mRNA; type: in vivo, mice
# Experimental: (§1) The animals, groups, treatment conditions and time points are the same as for Example 3 above. Livers were harvested from the animals in Example 3 and subjected to the following analysis.
# (§2) Total RNA was extracted from liver samples using RNAiso (Takara Bio, Japan) according to the manufacturer's instructions. One μg of RNA was reverse-transcribed using a reaction mixture containing 4.5 mM MgCl2 (Roche, Switzerland), 40 U RNase inhibitor (Toyobo, Japan), 0.5 mM dNTP (Promega, USA), 6.28 μM random hexamer (Promega), 5× first strand buffer (Promega), 6.6 mM dithiothreitol (Invitrogen, USA) and MMLV-RT (Invitrogen) in a final volume of 20 μL. The reaction was carried out for 1 hour at 37° C., followed by 5 minutes at 99° C. Real-time PCR was performed using real-time PCR DICE and SYBR premix Taq (Takara Bio). To calculate the relative mRNA expression level, the expression of each gene was normalized to that of reference gene 36B4 (gene symbol: Rp1p0). Statistical analyses were performed using Bonferroni Multiple Comparison Test on Prism Software 4. P values <0.05 were considered statistically significant. The expression level of Collagen Type I, collagen type 3, α-SMA, TGF-β, CCR2, and TIMP-1 mRNA were assessed.
# α-SMA mRNA = assay: Quantitative RT-PCR of liver, α-SMA mRNA; type: in vivo, mice
# Experimental: as §1, §2
# NASH mice [1] = assay: Liver weight, NAS and inflammatory cell infiltration in NASH mice (summary statements); type: in vivo
# Source text: (§3) In this example, NASH was induced in 48 male mice by a single subcutaneous injection of streptozotocin (STZ, Sigma-Aldrich, USA) solution 2 days after birth and feeding with high fat diet (HFD, 57 kcal % fat, cat#HFD32, CLEA Japan, Japan) after 4 weeks of age. The mice were randomized into 6 groups of 8 mice at 7 weeks of age according to Table 1 below. Eight male littermates, fed with normal diet without STZ treatment, were used for the Normal group.
# (§4) Group 1 (normal) consisted of eight normal mice fed with a normal diet ad libitum without any treatment. Group 2 (vehicle) consisted of eight NASH mice that were subcutaneously administered vehicle at a volume of 5 mL/kg once daily from 7 to 10 weeks of age. Group 3 (TXA127-30 μg) consisted of eight NASH mice that were subcutaneously administered vehicle supplemented with TXA127 at a dose of 30 μg/5 mL/kg once daily from 7 to 10 weeks of age. Group 4 (TXA127-100 μg) consisted of eight NASH mice that were subcutaneously administered vehicle supplemented with TXA127 at a dose of 100 μg/5 mL/kg once daily from 7 to 10 weeks of age. Group 5 (TXA127-300 μg) consisted of eight NASH mice that were subcutaneously administered vehicle supplemented with TXA127 at a dose of 300 μg/5 mL/kg once daily from 7 to 10 weeks of age. Group 6 (TXA127-1,000 μg) consisted of eight NASH mice that were subcutaneously administered vehicle supplemented with TXA127 at a dose of 1,000 μg/5 mL/kg once daily from 7 to 10 weeks of age. Group 7 consisted of eight NASH mice that were orally administered pure water supplemented with Telmisartan at a dose of 15 mg/10 mL/kg once daily from 8 to 10 weeks of age.
# Vehicle (saline) and TXA127 were administered via subcutaneous administration to the mice in a volume of 5 mL/kg body weight. Telmisartan was administered by oral route to the mice in a volume of 10 mL/kg body weight. TXA127 was dissolved in saline, and Telmisartan (MICARDIS®) was purchased from Boehringer Ingelheim GmbH and was dissolved in pure water. TXA127 was administered once daily at the doses of 30, 100, 300 or 1000 μg/kg body weight. […]
# TIMP-1 mRNA = assay: Quantitative RT-PCR of liver, TIMP-1 mRNA; type: in vivo, mice
# Experimental: as §1, §2
# [2] = Plasma ALT, AST and ALP levels in STZ/high fat diet NASH mice; type: in vivo
# Source text: as §3, §4
# (§5) Vehicle (saline) and TXA127 were administered via subcutaneous administration to the mice in a volume of 5 mL/kg body weight. Telmisartan was administered by oral route to the mice in a volume of 10 mL/kg body weight. TXA127 was dissolved in saline, and Telmisartan (MICARDIS®) was purchased from Boehringer Ingelheim GmbH and was dissolved in pure water. TXA127 was administered once daily at the doses of 30, 100, 300 or 1000 μg/kg body weight. Telmisartan was administered once daily at the dose of 15 mg/kg body weight.
# (§6) Non-fasting whole blood glucose levels were measured in whole blood samples using G Checker (Sanko Junyaku, Japan). For plasma biochemistry, blood was collected in polypropylene tubes with anticoagulant (Novo-Heparin, Mochida Pharmaceutical, Japan) and centrifuged at 1,000×g for 15 minutes at 4° C. The supernatant was collected and stored at −80° C. until use. The plasma levels of ALT, AST, and ALP were measured by FUJI DRI-CHEM 7000 (Fuji Film, Japan).
# Collagen Type 3 mRNA = assay: Quantitative RT-PCR of liver, Collagen Type 3 mRNA; type: in vivo, mice
# Experimental: as §1, §2
# [3] = Non-fasting whole blood glucose in STZ/high fat diet NASH mice; type: in vivo
# Source text: as §3, §4, §5, §6
# NASH mice [4] = assay: Sirius red staining of liver sections, fibrosis area, in NASH mice; type: in vivo
# Source text: as §3, §4, §5
# For quantitative analysis of fibrosis areas, bright field images of
# Sirius red-stained sections were captured using a digital camera (DFC280, Leica, Germany) around central veins at 200-fold magnification, and the positive areas in 5 fields/section were quantified using ImageJ software (National Institute of Health, USA).
# NASH mice [5] = assay: Liver hydroxyproline content in NASH mice; type: in vivo; conditions: normalized by total protein
# Source text: as §3, §4, §5
# To quantify liver hydroxyproline content, frozen livers (40-60 mg) were minced and defatted in acetone for 30 minutes at room temperature. After centrifugation, the pellets were air-dried and dissolved in 400 μL of 2N NaOH at 65° C. The liver lysates were autoclaved at 121° C. for 20 minutes. The samples were then acid-hydrolyzed with 400 μL of 6N HCl at 121° C. for 20 minutes, and neutralized with 400 μL of 10 mg/mL activated carbon in 4N NaOH. The neutralized samples were buffered with 2.2 M acetic acid/0.48 M citric acid buffer and centrifuged to obtain the supernatant. In order to construct a standard curve of hydroxyproline, serial dilutions of trans-4-hydroxy-L-proline standard (Sigma, USA) were prepared starting at 16 μg/mL. Five hundred μL of the supernatant and standard were added to 500 μL chloramine T in 10% n-propanol/acetate-citrate buffer and incubated for 25 minutes at room temperature. […] After samples were cooled on ice and centrifuged to collect the supernatant, the optical density of each supernatant and standard was measured at 560 nm and the concentration of liver hydroxyproline was calculated form the hydroxyproline standard curve. Protein concentrations of each supernatant were determined using a BCA protein assay kit (Thermo Scientific, USA). […]
# CCR2 mRNA = assay: Quantitative RT-PCR of liver, CCR2 mRNA; type: in vivo, mice
# Experimental: as §1, §2
# TGF-β mRNA = assay: Quantitative RT-PCR of liver, TGF-β mRNA; type: in vivo, mice
# Experimental: as §1, §2
# [6] = relative to 36B4, Normal = 1.00, 15 mg/kg oral QD
# [7] = 15 mg/kg oral QD, compared with the Vehicle group
# [8] = 15 mg/kg oral QD, 8-10 wks of age
# [9] = relative to 36B4, Normal = 1.00, 30 μg/kg SQ QD
# [10] = relative to 36B4, Normal = 1.00, 100 μg/kg SQ QD
# [11] = relative to 36B4, Normal = 1.00, 300 μg/kg SQ QD
# [12] = relative to 36B4, Normal = 1.00, 1000 μg/kg SQ QD
# [13] = 30 μg/kg SQ QD, 7-10 wks of age
# [14] = 100 μg/kg SQ QD, 7-10 wks of age
# [15] = 300 μg/kg SQ QD, 7-10 wks of age
# [16] = 1000 μg/kg SQ QD, 7-10 wks of age
compound,measurement,setting,value
"CCCc1nc2c(C)cc(-c3nc4ccccc4n3C)cc2n1Cc1ccc(-c2ccccc2C(=O)O)cc1 [Telmisartan, reference compound]",Collagen Type 1 mRNA expression levels,Collagen Type 1 mRNA; [6],3.14±0.59
same,α-SMA mRNA expression levels,α-SMA mRNA; [6],2.07±0.87
same,NAS,NASH mice [1]; [7],significantly decreased
same,liver weight,NASH mice [1]; [7],significantly decreased
same,TIMP-1 mRNA expression levels,TIMP-1 mRNA; [6],4.22±1.52
same,plasma ALP levels,[2]; [8],605±130 U/L
same,plasma ALT levels,[2]; [8],41±10 U/L
same,plasma AST levels,[2]; [8],232±141 U/L
same,Collagen Type 3 mRNA expression levels,Collagen Type 3 mRNA; [6],2.09±0.50
same,non-fasting blood glucose levels in whole blood,"[3]; 15 mg/kg oral QD, 8-10 wks of age, detection limit 900 mg/dL",900 ± 0 mg/dL
same,percentage of fibrosis area (Sirius red-positive area),NASH mice [4]; [8],0.44±0.12%
same,liver hydroxyproline content,NASH mice [5]; [8],1.46 ± 0.69 µg/mg
same,CCR2 mRNA expression levels,CCR2 mRNA; [6],1.94±0.37
same,TGF-β mRNA expression levels,TGF-β mRNA; [6],1.58±0.23
"TXA127: test substance dissolved in saline, given subcutaneously; not defined in the text, apparently the angiotensin-(1-7) peptide (DRVYIHP; Angiotensin 1-7; UniProt P01019 25-31, looked up)",Collagen Type 1 mRNA expression levels,Collagen Type 1 mRNA; [9],4.48±0.91
same,Collagen Type 1 mRNA expression levels,Collagen Type 1 mRNA; [10],3.37±1.58
same,Collagen Type 1 mRNA expression levels,Collagen Type 1 mRNA; [11],3.06±1.12
same,Collagen Type 1 mRNA expression levels,Collagen Type 1 mRNA; [12],2.77±0.77
same,α-SMA mRNA expression levels,α-SMA mRNA; [9],2.88±1.08
same,α-SMA mRNA expression levels,α-SMA mRNA; [10],2.65±2.46
same,α-SMA mRNA expression levels,α-SMA mRNA; [11],2.49±0.98
same,α-SMA mRNA expression levels,α-SMA mRNA; [12],1.92±0.67
same,inflammatory cell infiltration,"NASH mice [1]; all doses (30, 100, 300, 1000 μg/kg SQ QD)",decreased inflammatory cell infiltration
same,TIMP-1 mRNA expression levels,TIMP-1 mRNA; [9],6.74±1.93
same,TIMP-1 mRNA expression levels,TIMP-1 mRNA; [10],9.80±8.93
same,TIMP-1 mRNA expression levels,TIMP-1 mRNA; [11],7.54±3.05
same,TIMP-1 mRNA expression levels,TIMP-1 mRNA; [12],8.54±6.41
same,plasma ALP levels,[2]; [13],428±61 U/L
same,plasma ALT levels,[2]; [13],46±15 U/L
same,plasma AST levels,[2]; [13],160±94 U/L
same,plasma ALP levels,[2]; [14],358±75 U/L
same,plasma ALT levels,[2]; [14],89±56 U/L
same,plasma AST levels,[2]; [14],352±174 U/L
same,plasma ALP levels,[2]; [15],472±100 U/L
same,plasma ALT levels,[2]; [15],43±17 U/L
same,plasma AST levels,[2]; [15],149±50 U/L
same,plasma ALP levels,[2]; [16],397±96 U/L
same,plasma ALT levels,[2]; [16],41±10 U/L
same,plasma AST levels,[2]; [16],142±32 U/L
same,Collagen Type 3 mRNA expression levels,Collagen Type 3 mRNA; [9],3.23±0.54
same,Collagen Type 3 mRNA expression levels,Collagen Type 3 mRNA; [10],2.82±1.50
same,Collagen Type 3 mRNA expression levels,Collagen Type 3 mRNA; [11],2.81±0.89
same,Collagen Type 3 mRNA expression levels,Collagen Type 3 mRNA; [12],2.24±0.68
same,non-fasting blood glucose levels in whole blood,[3]; [13],675 ± 103 mg/dL
same,non-fasting blood glucose levels in whole blood,[3]; [14],590 ± 131 mg/dL
same,non-fasting blood glucose levels in whole blood,[3]; [15],639 ± 76 mg/dL
same,non-fasting blood glucose levels in whole blood,[3]; [16],632 ± 92 mg/dL
same,percentage of fibrosis area (Sirius red-positive area),NASH mice [4]; [13],0.88±0.33%
same,percentage of fibrosis area (Sirius red-positive area),NASH mice [4]; [14],0.55±0.29%
same,percentage of fibrosis area (Sirius red-positive area),NASH mice [4]; [15],0.54±0.18%
same,percentage of fibrosis area (Sirius red-positive area),NASH mice [4]; [16],0.51±0.09%
same,liver hydroxyproline content,NASH mice [5]; [13],1.22 ± 0.29 µg/mg
same,liver hydroxyproline content,NASH mice [5]; [14],0.88 ± 0.17 µg/mg
same,liver hydroxyproline content,NASH mice [5]; [15],1.24 ± 0.51 µg/mg
same,liver hydroxyproline content,NASH mice [5]; [16],1.34 ± 0.69 µg/mg
same,CCR2 mRNA expression levels,CCR2 mRNA; [9],2.60±0.60
same,CCR2 mRNA expression levels,CCR2 mRNA; [10],3.26±2.01
same,CCR2 mRNA expression levels,CCR2 mRNA; [11],2.82±0.88
same,CCR2 mRNA expression levels,CCR2 mRNA; [12],3.10±1.55
same,TGF-β mRNA expression levels,TGF-β mRNA; [9],2.35±0.44
same,TGF-β mRNA expression levels,TGF-β mRNA; [10],1.93±0.44
same,TGF-β mRNA expression levels,TGF-β mRNA; [11],1.69±0.49
same,TGF-β mRNA expression levels,TGF-β mRNA; [12],1.70±0.35
